Data as given in patent US8518876B2, “Composition for long-acting peptide analogs” (Pharmaln Corporation, priority 2007, dated 2013).
pKd: −log10 of the molar value. Where a SMILES comes first, the peptide text is derived from it. Bridges are numbered along the chain shown (N, C = ends). The star is where a group is joined. Lauroyl = CCCCCCCCCCCC(=O)*

Test: Binding of C12TerA to hydrophobic polymeric carrier (Scatchard plot, bound/free by HPLC)
Details: carrier 2.5 mg/tube, PBS, incubated overnight; estimated, plot not completely linear
Excerpt: FIG. 17: This figure is a Scatchard plot showing the binding of C12TerA to polymeric carrier containing a hydrophobic group disclosed in U.S. patent application Ser. No. 11/613,183, which is hereby incorporated by reference. The carrier also referred to as PGC-HC18 or 20PLPEG555-C18 is made up of polylysine of 15-30 kDa where 55% of the amino group is covalently modified to contain 5 kDa methoxypolyethylene glycol attached by through succinate linker and the remaining 45% of the amino group is amide bonded to stearic acid carboxyl group all disclosed in U.S. patent application Ser. No. 11/613,183. […] The filtrate containing […] C12TerA was quantified by HPLC. […] It should be noted that some C12TerA can form micelle and may be counted as bound due to the analytical techniques used.
FIG. 17 is a Scatchard plot showing the binding of C12TerA to polymeric carrier containing a hydrophobic group disclosed in U.S. patent application Ser. No. 11/613,183, which is hereby incorporated by reference. […] The filtrate containing […] C12TerA was quantified by HPLC. […] It should be noted that some C12TerA can form micelle and may be counted as bound due to the analytical techniques used.
The amount of C12TerA capable of being bound to a carrier was determined by varying the amount of the analog in the presence of 10 mg/ml hydrophobic group containing carrier PGC-HC18 or 20PLPEG555-C18. […]

pKd: 5.30 to 6.00
Compound: CCCCCCCCCCCC(=O)NCC(=O)NCC(=O)NCC(=O)N[C@H]1CSSC[C@@H](C(=O)N2CCC[C@H]2C(=O)N[C@@H](CCCCN)C(=O)NCC(N)=O)NC(=O)[C@H](CC(N)=O)NC(=O)[C@H](CCC(N)=O)NC(=O)[C@H](Cc2ccccc2)NC(=O)[C@H](Cc2ccc(O)cc2)NC1=O [C12TerA, CH3(CH2)10CO-Gly-Gly-Gly-Cys-Tyr-Phe-Gln-Asn-Cys-Pro-Lys-Gly-NH2] (Lauroyl-GGGCYFQNCPKG-NH2; disulfide 4-9)
